Results on 1 compound are retold here after patent publication US20160031859A1, “Alkyl [(S)-1-((S)-2--buta-1,3-diynyl)-phenyl]-1H-imidazol-2-yl}-pyrrolidine-1-carbonyl)-2-methyl-propyl]-carbamate naphthalene-1,5-disulfonate, pharmaceutical composition, medicament, method for treatment of viral diseases” (priority 2013, published 2016).

For one series, the system named is genotype 2a HCV. Kind of series: HCV replicon inhibitory activity, genotype 2a. It counts as cell-based. The settings on record: Hepatitis C virus; HCV genotype 2a, FBS; read-out: gT2a FBS EC50. Background: A replicon is a self-replicating genome or part of one, used to study replication in cells.
Series [1] concerns subgenomic RNA-replicon HCV (genotype 1b, clon Con1). Kind of series: HCV replicon immunoenzymatic assay in Huh7 cells, genotype 1b. The following applies: Hepatitis C virus, Huh-7, read-out: gT1b FBS EC50. It is filed as cell-based. The protocol:
Determination of antiviral activity of the compounds of the general formula 1 (inhibiting ability of NS5A protein).
Inhibiting ability of compounds of formula 1 of NS5A protein was determined in the human hepatoma cell line Huh7, comprising subgenomic RNA-replicon HCV (genotype 1b, don Con1). A version of immumoenzymatic assay (IEA) on viral protein NS5A in 96-well plate was used as an experimental method. Cytotoxicity of the compounds was estimated in parallel regime.
Cells Huh7 were seeded in 96-well plate (7.5×10^3 cells to each well in 100 μl of culture medium). Solutions of the tested compounds in DMEM medium {DMEM 1×; Source: Cellgro; Catalogue: 10-013-CV} were prepared immediately before use. Eleven serial three fold dilutions with variation of concentrations from 20 nM to 0.2 pM were prepared. In 4 hours after seeding, serial dilutions of the compounds were added to the cells (100 μl to each well). Final concentration of tested compounds was varied from 10 nM to 0.1 pM, and DMSO—0.5%. If it was necessary, higher concentrations of the disclosed azoles were investigated. Each dilution of the compound was tested on two identical wells. […] The reaction was arrested by the addition of 2N H2SO4 in amount of 100 μl/well, and optical density (wavelength 490 nm) was measured by means of multiscan plate reader Victor3 V 1420 (Perkin Elmer). […]

Series [2] can be described thus: Investigation of storage of naphthalene-1,5-disulfonates (amount of admixtures, UV 220 nm). It is filed as physicochemical. The settings on record: for Max admixture / Sum of admixtures: refrigerator, 4.7° C. The procedure: Investigation of storage of naphthalene-1,5-disulfonates of the general formula 1. All samples were stored in glass vials sealed with rubber cork and aluminum caps, in a refrigerator at a temperature of about ˜4.7 ° C. The amount of admixtures was determined by method of internal normalization, detection was carried out using UV detector at 220 nm. Below are given the test results for compound 1.1 showing their stability at temperature 4.7° C.

For a further series, the system named is genotype 1a HCV. Briefly: HCV replicon inhibitory activity, genotype 1a. It counts as cell-based. The following applies: Hepatitis C virus; HCV genotype 1a, FBS; read-out: gT1a FBS EC50.

A value given as a limit tells only on which side of the number the result lay.

Take `COC(=O)N[C@H](C(=O)N1CCC[C@H]1c1ncc(C#CC#Cc2ccc(-c3cnc([C@@H]4CCCN4C(=O)[C@@H](NC(=O)OC)C(C)C)[nH]3)cc2)[nH]1)C(C)C` [Compound 1.1, methyl [(S)-1-((S)-2-{5-[4-(4-{2-[(S)-1-((S)-2-methoxycarbonylamino-3-methyl-butyryl)-pyrrolidin-2-yl]-3H-imidazol-4-yl}-buta-1,3-diynyl)-phenyl]-1H-imidazol-2-yl}-pyrrolidine-1-carbonyl)-2-methylpropyl]-carbamate naphthalene-1,5-disulfonate]: the half-maximal effective concentration (EC50) (with genotype 2a HCV; in series [1]; with genotype 1a HCV) was < 1 nM throughout. Also, the Max admixture in series [2] (1 week storage) is 0.348%; in series [2] (4 weeks storage), 0.341%; in series [2] (20 weeks storage), 0.298%; in series [2] (before the test), 0.342%. In addition, the Sum of admixtures in series [2] (1 week storage) was determined as 1.369%; in series [2] (4 weeks storage) it was 1.506%; in series [2] (20 weeks storage) it was 1.493%; in series [2] (before the test) it was 1.312%. Further, the “storage stability, in words” value in series [2] (temperature 4.7° C.) was “stability”.
